# From patent US10188693B2, “Methods for treatment of atherosclerosis” (Stealth BioTherapeutics Corp, priority 2012, dated 2019)
# Entries after “also recorded” stand apart in the source; their conditions may differ.
# Key:
# [1] = test system: Apoprotein E deficient mice; test: Total lesion area in aortic root 300 μm across aortic valve (aortic sinus cryosections, lipid staining); format: in vivo; set-up: Area, total lesion area in aortic root / Area, total lesion area in aortic root, AVE: unit not given here; conditions: 12 weeks
# Text: Apoprotein E deficient mice (Jackson Laboratories, 600 Main Street, Bar Harbor, Me.) were used in this study. The mice were male, 7-8 weeks of age, and between 18-20 g in weight. An initial total cholesterol measurement was made on 30 mice, and the mice were grouped into two groups of 15 to match the total cholesterol measurements. Both groups were fed a “western diet” (40 kcal % butterfat, 0.15% [wt/wt] cholesterol, Harlan Teklad diet TD-88137). Starting at t=0, the control group of 15 mice received vehicle only (phosphate buffered saline at pH 7.4), while the test group of 15 mice received aromatic-cationic peptide reconstituted in phosphate buffered saline. Body weights of the mice were recorded weekly, and mortality checks were performed daily.
# The aromatic-cationic peptide D-Arg-2′6′-Dmt-Lys-Phe-NH2 (sterile lyophilized powder, reconstituted in phosphate buffered saline) was tested. […]
# For the aortic sinus, the heart and approximately 5 mm of the ascending aorta was cut from the remainder of the aorta. […] The sinus was imaged at 5 step levels in the region of interest, i.e., the aortic root, for a total distance of 300 μm and the lipid-staining areas and measured (total cross sectional area) using a Nikon computerized image analysis system. The data were then computed by group and statistically analyzed.
# [2] = test system: Human skin fibroblasts; test: Coenzyme Q10 levels in fibroblasts treated with peptide; format: cell-based; conditions: 10 nM peptide, 16-24 hours or 5 days, versus saline treated fibroblasts; listed as aromatic-cationic peptide
# Method: Fibroblasts were treated with an aromatic-cationic peptide of the present disclosure, and levels of coenzyme Q10 were evaluated.
# Human skin fibroblasts from normal subjects were incubated under standard tissue culture medium containing high glucose levels to support anaerobic conditions. At approximately 90% confluence, cells were incubated in the presence of 10 nM D-Arg-2′6′-Dmt-Lys-Phe-NH2 for a period of either one day (24 h) or five days as shown in Table 11 below. The culture medium was not changed during the incubation period. Cells were harvested and the cellular level of CoQ was determined using methods known in the art. Data represents the average n=3-6.
substance,measurement,setting,value
D-Arg-2′6′-Dmt-Lys-Phe-NH2,"Area, total lesion area in aortic root, AVE","[1]; group average, 300 μm across aortic valve, 1 mg/kg subcutaneously daily",282.72
same,"total (mean) lesion area in aortic root, in words","[1]; treated versus vehicle, listed as aromatic-cationic peptide",reduces; also recorded: lower
same,"coenzyme Q10 levels in fibroblast cells, in words",[2],increased
